In patent US5852007A, “Cysteine and serine protease inhibitors containing D-amino acid at the P2 position, methods of making same, and methods of using same” (priority 1997, dated 1998):
Like-named read-outs stand apart in the source and are kept apart here. Square brackets hold non-standard residues; d marks the D form. Peptide text beside a SMILES is read from it. * marks the point of attachment. ξ: configuration not given here. d(αMeF) = C[C@@](N)(Cc1ccccc1)C(=O)O; 2Pal = N[C@@H](Cc1ccccn1)C(=O)O; Tle = CC(C)(C)[C@H](N)C(=O)O; ξF = NC(Cc1ccccc1)C(=O)O; Bn = c1ccc(C*)cc1; Ms = CS(=O)(=O)*

Tests used:
Format in all cases: biochemical
[1] = target: T1, thrombin (Homo sapiens, UniProt P00734); assay: Inhibition of thrombin; conditions: 10 uM; for inhibition at 10 µM: read-out: Thrombin % I @ 10 uM
T1 construct: purchased Sigma Chem. Co. T-7009

[2] = target: T2, α-chymotrypsin (Bos taurus, UniProt P00766); assay: Inhibition of α-chymotrypsin; conditions: 10 uM; for inhibition at 10 µM: read-out: Chymotrypsin % I @ 10 uM
T2 construct: purchased Sigma Chem. Co. C-3142
Method: Additionally, because α-chymotrypsin is not a calcium sensitive enzyme and is constitutively active, following addition of inhibitor stocks to the 96 well plates, 100 μl of a 2-fold concentrated stock of enzyme in dilution buffer was first added and the reaction started by addition of 100 μl of a 2-fold concentrated stock of substrate in assay buffer. Substrate hydrolysis was monitored every 5 minutes up to 30 minutes using a Fluoroskan II ([…]).

[3] = target: T3, Recombinant human calpain I (Homo sapiens, UniProt P07384); assay: Inhibition of calpain I activity
T3 construct: made in house
T3 sequence (P07384 1-714): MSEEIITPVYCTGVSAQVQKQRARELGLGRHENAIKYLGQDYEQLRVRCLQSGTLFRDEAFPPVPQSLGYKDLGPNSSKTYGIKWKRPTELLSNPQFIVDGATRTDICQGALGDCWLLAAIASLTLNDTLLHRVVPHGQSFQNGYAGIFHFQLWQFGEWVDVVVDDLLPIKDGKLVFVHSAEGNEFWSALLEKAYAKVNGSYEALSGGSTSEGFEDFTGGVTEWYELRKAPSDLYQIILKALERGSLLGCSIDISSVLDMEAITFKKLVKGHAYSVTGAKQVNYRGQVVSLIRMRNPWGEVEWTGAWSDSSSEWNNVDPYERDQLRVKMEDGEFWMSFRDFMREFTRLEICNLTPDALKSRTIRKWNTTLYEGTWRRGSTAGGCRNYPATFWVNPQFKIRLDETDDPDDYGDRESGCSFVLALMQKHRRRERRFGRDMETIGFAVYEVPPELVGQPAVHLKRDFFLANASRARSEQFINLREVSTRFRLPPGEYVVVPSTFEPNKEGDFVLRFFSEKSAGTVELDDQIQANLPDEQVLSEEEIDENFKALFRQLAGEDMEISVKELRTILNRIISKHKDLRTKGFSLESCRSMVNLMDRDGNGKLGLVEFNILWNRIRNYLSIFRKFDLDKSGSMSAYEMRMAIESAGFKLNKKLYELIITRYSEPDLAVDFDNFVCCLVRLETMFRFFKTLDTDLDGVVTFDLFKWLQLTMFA
Method: To evaluate inhibitory activity, stock solutions (40 times concentrated) of exemplary compounds of the invention were prepared in 100% anhydrous DMSO and 5 μL of each inhibitor preparation were aliquoted into each of three wells of a 96-well plate. Recombinant human calpain I, prepared by the method of Meyer et al. (Biochem. […] To start the reaction, 20 μL of 50 mM CaCl2 in assay buffer was added to all wells of the plate, excepting three, which were used as background signal baseline controls. Substrate hydrolysis was monitored every 5 minutes for a total of 30 minutes. […] Inhibition of calpain I activity was calculated as the percent decrease in the rate of substrate hydrolysis in the presence of inhibitor (VI) relative to the rate in its absence (VO). Comparison between VO and VI was made within the linear range for substrate hydrolysis. For screening, compounds were tested at 10, 1.0, and 0.1 μM. […] The results were plotted as % inhibition versus log inhibitor concentration and the IC50 was calculated from linear regression of the data. Apparent second order rate constants were determined from analysis of reaction progress curves under pseudo-first order conditions. Each determination represents the means of three or more independent single cuvette analyses continually monitored via a Perkin-Elmer LS50B spectrofluorimeter. The rate of inhibition of hydrolysis was obtained by fitting the curve to the exponential equation (1): […]

[4] = target: T4, cathepsin L (Homo sapiens, UniProt P07711); assay: Inhibition of cathepsin L; conditions: for inhibition at 1 µM: read-out: Cat L % I @ 1 uM; for IC50: Table II, read-out: Cat L IC50
T4 construct: purchased Calbiochem 219402
Method: (§1) Additionally,the order of reagents added to the plate was altered because both enzymes are constitutively active. Following inhibitor addition to the plates, appropriate 2× concentrated stock dilutions of the enzyme preparations were made in assay buffer and 100 μl added to each well. The assay was initiated by addition of 100 μl of 2× concentrated stock dilution of substrate in assay buffer.

[5] = target: T5, cathepsin B (Homo sapiens, UniProt P07858); assay: Inhibition of cathepsin B; conditions: for inhibition at 1 µM: read-out: Cat B % I @ 1 uM; for IC50: read-out: Cat B IC50
T5 construct: purchased Calbiochem 219364
Method: as §1

T4 sequence (P07711 114-288 limits assumed): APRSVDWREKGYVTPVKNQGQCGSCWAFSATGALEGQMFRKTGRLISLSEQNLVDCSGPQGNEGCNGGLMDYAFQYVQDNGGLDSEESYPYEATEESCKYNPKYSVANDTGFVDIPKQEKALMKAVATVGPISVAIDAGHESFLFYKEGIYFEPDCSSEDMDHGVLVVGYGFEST
T4 sequence (P07711 292-333 limits assumed): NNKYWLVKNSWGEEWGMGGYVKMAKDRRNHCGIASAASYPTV

| Compound | inhibition at 10 µM ([1]; Table III) [%] | inhibition at 10 µM ([2]; Table III) [%] | inhibition at 0.1 µM ([3]; Table III, 0.1 uM) [%] | inhibition at 1 µM ([4]; Table III, 1 uM) [%] | inhibition at 1 µM ([5]; Table III, 1 uM) [%] | IC50 ([3]; Table III) [nM] | other results |
| --- | --- | --- | --- | --- | --- | --- | --- |
| CC(=O)N[C@H](CSCc1ccccc1)C(=O)N[C@H](C=O)Cc1ccccc1 [Compound 25, BnS--CH2 CH(NHC(=O)CH3)C(=O)-Phe--H] (Ac-[dC](Bn)-Phe-aldehyde) |  |  |  |  |  |  | inhibition at 10 µM ([1]; Table II): 0%; inhibition at 10 µM ([2]; Table II): 3%; IC50 ([3]; Table II): 26 nM; IC50 [4]: 48 nM; IC50 ([5]; Table II): 5000 nM |
| CCOC(OCC)[C@H](Cc1ccccc1)NC(=O)[C@@H](COCc1ccccc1)NS(C)(=O)=O [Compound 134] | 0 | 10 | 0 | 98 | 19 |  |  |
| C[C@](Cc1ccccc1)(NS(C)(=O)=O)C(=O)NC(C=O)Cc1ccccc1 (stereo partly shown) [Compound 105] (Ms-[d(αMeF)]-[ξF]-aldehyde) | 0 | 10 | 9 | 71 | 45 |  |  |
| CC(C)(C)[C@@H](C=O)NC(=O)[C@@H](COCc1ccccc1)NS(C)(=O)=O [Compound 111] (Ms-[dS](Bn)-[Tle]-aldehyde) | 0 | 16 | 27 | 91 | 10 |  |  |
| CC(C)(C)OC(=O)N1CCCC[C@H](NC(=O)[C@@H](COCc2ccccc2)N(C(=O)OC(C)(C)C)S(C)(=O)=O)C1=O [Compound 127] | 0 | 1 | 6 | 7 | 36 |  |  |
| CC(C)C[C@@H](C=O)NC(=O)[C@@H](CC(C)C)NS(C)(=O)=O [Compound 87] |  |  | 23 | 96 | 86 | 95 |  |
| O=C[C@H](Cc1ccccc1)NC(=O)[C@H]1C[C@@H](OS(=O)(=O)c2ccccc2)CN1S(=O)(=O)c1ccccc1 [Compound 112] | 0 | 9 | 7 | 100 | 25 |  |  |
| CC(C)C[C@@H](NS(C)(=O)=O)C(=O)N[C@H](C=O)Cc1ccccc1 [Compound 86] (Ms-[dL]-Phe-aldehyde) | 0 | 8 | 72 | 100 | 78 | 40 |  |
| CC(C)(C)OC(=O)N[C@H](CC(=O)N1CCc2ccccc2C1)C(=O)N[C@H](C=O)Cc1ccccc1 [Compound 8, (R)-2-THIQ-C(=O)CH2 CH(NHBoc)C(=O)-Phe--H] |  |  |  |  |  |  | inhibition at 10 µM ([1]; Table II): 0%; inhibition at 10 µM ([2]; Table II): 32%; IC50 ([3]; Table II): ~20000 nM; IC50 [4]: 24000 nM |

More lines, main results first:

| inhibition at 10 µM ([1]; Table III) [%] | inhibition at 10 µM ([2]; Table III) [%] | inhibition at 0.1 µM ([3]; Table III, 0.1 uM) [%] | inhibition at 1 µM ([4]; Table III, 1 uM) [%] | inhibition at 1 µM ([5]; Table III, 1 uM) [%] | IC50 ([3]; Table III) [nM] | Compound | other results |
| --- | --- | --- | --- | --- | --- | --- | --- |
| 0 | 0 | 2 | 93 | 22 |  | CS(=O)(=O)N[C@H](COCc1ccccc1)C(=O)N[C@@H](C=O)Cc1ccccc1 [Compound 84] |  |
| 0 | 0 | 4 | 100 | 96 |  | C[N+]([O-])=C[C@H](Cc1ccccc1)NC(=O)[C@@H](COCc1ccccc1)NS(C)(=O)=O [Compound 116] |  |
|  |  |  |  |  | 25 | CS(=O)(=O)NC(CCSCc1ccccc1)C(=O)N[C@H](C=O)Cc1ccccc1 (single isomer, unassigned) [Compound 108] | Thrombin % I @ 10 uM ([1]; Table III): 0%; Chymotrypsin % I @ 10 uM ([2]; Table III): 0%; Calpain % I @ 0.1 uM ([3]; Table III, 0.1 uM): 83%; Cat L % I @ 1 uM ([4]; Table III, 1 uM): 100%; Cat B % I @ 1 uM ([5]; Table III, 1 uM): 96% |
| 0 | 0 | 59 | 98 | 70 | 40 | CS(=O)(=O)N[C@H](COCc1ccccc1)C(=O)N[C@H](C=O)Cc1ccccn1 [Compound 109] (Ms-[dS](Bn)-[2Pal]-aldehyde) |  |
| 0 | 0 | 94 | 100 | 100 | 12 | CN(Cc1ccccc1)C(=O)C[C@@H](NS(C)(=O)=O)C(=O)N[C@H](C=O)Cc1ccccc1 [Compound 78] | IC50 ([5]; Table III): 6 nM |
| 21 | 3 | 92 | 100 | 100 | 32 | CC(=O)Nc1ccc(S(=O)(=O)N[C@H](COCc2ccccc2)C(=O)N[C@H](C=O)Cc2ccccc2)cc1 [Compound 51] | IC50 ([5]; Table III): 14 nM |
| 0 | 1 | 14 | 93 | 0 |  | O=C[C@H](Cc1ccccc1)NC(=O)[C@@H](COCc1ccccc1)N1C(=O)c2ccccc2C1=O [Compound 94] |  |
| 0 | 3 | 95 | 68 | 98 | 12 | C[C@H](OCc1ccccc1)[C@@H](NS(C)(=O)=O)C(=O)N[C@H](C=O)Cc1ccccc1 [Compound 43] (Ms-[dT](Bn)-Phe-aldehyde) | IC50 ([5]; Table III): 58 nM |
| 0 | 4 | 86 | 100 | 100 | 20 | O=C[C@H](Cc1ccccc1)NC(=O)[C@@H](Cc1ccccc1)NS(=O)(=O)c1ccccc1 [Compound 59] | IC50 ([5]; Table III): 5 nM |
| 0 | 53 | 30 | 100 | 68 |  | Cc1nn(C)c(Cl)c1S(=O)(=O)N[C@H](COCc1ccccc1)C(=O)N[C@H](C=O)Cc1ccccc1 [Compound 91] |  |
| 4 | 8 | 90 | 100 | 99 | 15 | CS(=O)(=O)N[C@H](CS(=O)(=O)Cc1ccccc1)C(=O)N[C@H](C=O)Cc1ccccc1 [Compound 80] | IC50 ([5]; Table III): 46 nM |
| 0 | 2 | 18 | 100 | 73 | 180 | CCNC(=O)C(=O)[C@H](Cc1ccccc1)NC(=O)[C@@H](COCc1ccccc1)NS(C)(=O)=O [Compound 81] |  |
| 2 | 0 | 20 | 17 | 27 |  | CS(=O)(=O)N[C@H](COCc1ccccc1)C(=O)N[C@@H](Cc1ccccc1)C(O)CCc1ccccc1 (stereo partly shown) [Compound 124] |  |
| 1 | 40 | 41 | 100 |  | 75 | Cn1cnc(S(=O)(=O)N[C@H](COCc2ccccc2)C(=O)N[C@H](C=O)Cc2ccccc2)c1 [Compound 63] |  |
